# Values quoted from earlier work in US20040197905A1, “Methods and devices for monitoring cellular metabolism in microfluidic cell-retaining chambers” (Thermogenic Imagining, priority 2003, published 2004).
# Where two headings read alike, the source gives them in different places.
substance,measurement,setting,value
carboxy SNARF-1,pKa,at 37° C.,7.3-7.4
same,pKa,at room temperature,about 7.5
